No end group written: not given here.
Columns and labels:
[1] = tested on: Pseudomonas aeruginosa (ATCC 27853); type: cell-based
In short: (§1)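 Bacteria grown in 3% TSB at 37° C, diluted in 10 mM sodium phosphate/1% TSB to 1×10^5 CFU/ml in wells, exposed to peptides (0–300 μg/ml) for 1 h at 37° C. Mixtures plated on TS agar for 18 h at 37° C; MBC is the lowest concentration giving no colonies.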

[2] = tested on: Staphylococcus aureus (ATCC 29213); type: cell-based
In short: as §1

[3] = tested on: methicillin-resistant Staphylococcus aureus (ATCC 33591); details: ATCC 33591, 4 h
[4] = tested on: multidrug-resistant Pseudomonas aeruginosa; details: 4 h
Protocol: First, each of Pseudomonas aeruginosa (ATCC 27853) and Staphylococcus aureus (ATCC 29213) was cultured in 3% (w/v) TSB (Tryptic Soy Broth) liquid medium at 37° C. and 200 rpm for 4 hours, and then further cultured under the same conditions for 3 hours to a concentration of 5×10^6 CFU/ml. Strain solutions were prepared by diluting each of the further cultured strains with SP (sodium phosphate; 10 mM sodium phosphate, 1% TSB) buffer to a final concentration of 2×10^5 CFU/ml.
(§2) Then, each peptide at varying concentrations (0 μg/ml to 300 μg/ml) was dispensed into each well of a 96-well microplate, and 100 μl (1×10^5 CFU/ml) of each of the prepared strain solutions was added thereto, mixed therewith, and allowed to react with the peptide in an incubator at 37° C. for 1 hour.
In addition, 30 g/L of TS (tryptic soy) and 15 g/L of agar were dissolved in distilled water and sterilized, and then 25 ml of the solution was poured onto a 100 mm round plate and solidified at room temperature for one day or more, thereby preparing a TS agar plate. 10 μl of each reaction solution of the peptide and the strain was plated on the TS agar plate at a constant size, and incubated in an incubator at 37° C. for 18 hours, and then colony formation on the plate was checked.
(§3) Specifically, each type of bacteria was cultured in 3% (w/v) TSB (Tryptic Soy Broth) liquid medium at 37° C. and 200 rpm for 4 hours, and then further cultured under the same conditions for 3 hours to a concentration of 5×10^6 CFU/ml. Strain solutions were prepared by diluting each of the […] of 2×10^5 CFU/ml.
as §2, with “Then, the KU-5878” for “Then, each”
(§4) In addition, 10 μl of each reaction solution of the peptide and the strain was plated on the TS agar plate at a constant size, and incubated in an incubator at 37° C. for 18 hours, and then colony formation on the plate was checked.
(§5) Meanwhile, the multidrug-resistant Pseudomonas aeruginosa, multidrug-resistant Acinetobacter and multidrug-resistant Klebsiella in Table 2 below were bacteria isolated from patients at Korea University Anam Hospital. […] Then, these bacteria were used in the experiment.

[5] = tested on: Streptococcus pneumoniae (NCCP 14585); type: cell-based; details: NCCP 14585, 4 h
Protocol: (§6) The minimum bactericidal concentration assay was the same as the method used in Example 1.
as §3
as §2, with “Then, the KU-5878” for “Then, each”
as §4, with “checked. The minimum bactericidal concentration was defined as the minimum concentration of the peptide at which no colony was formed, and the experimental results are shown in Table 2 below.” for “checked.”

[6] = tested on: Acinetobacter baumannii (ATCC 19606); assay: Minimum bactericidal concentration (MBC) assay; type: cell-based
Protocol: as §6, §3
as §2, with “Then, the KU-5878” for “Then, each”
as §4, with “checked. The minimum bactericidal concentration was defined as the minimum concentration of the peptide at which no colony was formed, and the experimental results are shown in Table 2 below.” for “checked.”

[7] = tested on: Bacillus subtilis (ATCC 6633); assay: Minimum bactericidal concentration (MBC) assay; type: cell-based
Protocol: as §6, §3
as §2, with “Then, the KU-5878” for “Then, each”
as §4, with “checked. The minimum bactericidal concentration was defined as the minimum concentration of the peptide at which no colony was formed, and the experimental results are shown in Table 2 below.” for “checked.”

[8] = tested on: Enterobacter aerogenes (ATCC 13048); assay: Minimum bactericidal concentration (MBC) assay; type: cell-based
Protocol: as §6, §3
as §2, with “Then, the KU-5878” for “Then, each”
as §4, with “checked. The minimum bactericidal concentration was defined as the minimum concentration of the peptide at which no colony was formed, and the experimental results are shown in Table 2 below.” for “checked.”

[9] = tested on: Enterococcus faecalis (ATCC 19433); assay: Minimum bactericidal concentration (MBC) assay; type: cell-based
Protocol: as §6, §3
as §2, with “Then, the KU-5878” for “Then, each”
as §4, with “checked. The minimum bactericidal concentration was defined as the minimum concentration of the peptide at which no colony was formed, and the experimental results are shown in Table 2 below.” for “checked.”

[10] = tested on: Enterococcus faecium (ATCC 19434); assay: Minimum bactericidal concentration (MBC) assay; type: cell-based
Protocol: as §6, §3
as §2, with “Then, the KU-5878” for “Then, each”
as §4, with “checked. The minimum bactericidal concentration was defined as the minimum concentration of the peptide at which no colony was formed, and the experimental results are shown in Table 2 below.” for “checked.”

[11] = tested on: Escherichia coli (ATCC 25922); assay: Minimum bactericidal concentration (MBC) assay; type: cell-based
Protocol: as §6, §3
as §2, with “Then, the KU-5878” for “Then, each”
as §4, with “checked. The minimum bactericidal concentration was defined as the minimum concentration of the peptide at which no colony was formed, and the experimental results are shown in Table 2 below.” for “checked.”

[12] = tested on: Klebsiella pneumoniae (ATCC 13883); assay: Minimum bactericidal concentration (MBC) assay; type: cell-based
Protocol: as §6, §3
as §2, with “Then, the KU-5878” for “Then, each”
as §4, with “checked. The minimum bactericidal concentration was defined as the minimum concentration of the peptide at which no colony was formed, and the experimental results are shown in Table 2 below.” for “checked.”

[13] = tested on: Streptomyces sindenensis (ATCC 12392); assay: Minimum bactericidal concentration (MBC) assay; type: cell-based
Protocol: as §6, §3
as §2, with “Then, the KU-5878” for “Then, each”
as §4, with “checked. The minimum bactericidal concentration was defined as the minimum concentration of the peptide at which no colony was formed, and the experimental results are shown in Table 2 below.” for “checked.”

[14] = tested on: Multidrug-resistant A. baumannii; details: multidrug-resistant, 4 h
Protocol: as §6, §3
as §2, with “Then, the KU-5878” for “Then, each”
as §4, §5

[15] = tested on: Multidrug-resistant K. pneumoniae; details: multidrug-resistant, 4 h
Protocol: as §6, §3
as §2, with “Then, the KU-5878” for “Then, each”
as §4, §5

[16] = tested on: Vancomycin-resistant E. faecium (NCCP 11522); type: cell-based, Enterococcus faecium; details: Vancomycin-resistant (NCCP 11522, 4 h)
Protocol: as §6, §3
as §2, with “Then, the KU-5878” for “Then, each”
as §4, with “checked. The minimum bactericidal concentration was defined as the minimum concentration of the peptide at which no colony was formed, and the experimental results are shown in Table 2 below.” for “checked.”

[17] = tested on: Vancomycin-resistant S. aureus (NCCP 15872); type: cell-based, Staphylococcus aureus; details: Vancomycin-resistant (NCCP 15872, 4 h)
Protocol: as §6, §3
as §2, with “Then, the KU-5878” for “Then, each”
as §4, with “checked. The minimum bactericidal concentration was defined as the minimum concentration of the peptide at which no colony was formed, and the experimental results are shown in Table 2 below.” for “checked.”

mouse red blood cells = type: cell-based
Protocol: Red blood cells were diluted with PBS, centrifuged 3 times at 900 g for 10 minutes, and washed. 100 μl of the diluted red blood cell solution (10% v/v PBS) was dispensed into each well of a 96-well microplate, and KU-5878, KU-5878-K4, KU-5878-K4-D, melittin, magainin 2 or daptomycin was added to each well which was then filled with PBS to 200 μl, followed by reaction by incubation at 37° C. for 1 hour. Then, the supernatant of the reaction solution was separated, and the absorbance at a wavelength of 550 nm was measured using a spectrophotometer. As control, PBS and 0.1% Triton X-100 (Triton X-100) solution were used.
Based on the results of measurement of the absorbance, the degree of red blood cell destruction was calculated according to Equation 1 below, and the results of the calculation are shown in FIG. 6. The % intact RBC=100(%)−[(absorbance of peptide-treated red blood cell solution−absorbance of PBS-treated red blood cell solution)/(absorbance of Triton X-100-treated red blood cell solution−absorbance of PBS-treated red blood cell solution)×100(%)] [Equation 1]

KKMMKKGGKFGTFMAIGMGIR [KU-5878-K4]
MBC (μg/ml) value against Pseudomonas aeruginosa ([1]; ATCC 27853): 4 µg/mL
MBC value (μg/ml) against Pseudomonas aeruginosa ([1]; ATCC 27853, 1 h): 4 µg/mL
MBC (μg/ml) value against Staphylococcus aureus ([2]; ATCC 29213): 3 µg/mL
MBC value (μg/ml) against Staphylococcus aureus ([2]; ATCC 29213, 1 h): 3 µg/mL
MBC value (μg/ml) against methicillin-resistant Staphylococcus aureus [3]: 5 µg/mL
MBC value (μg/ml) against multidrug-resistant Pseudomonas aeruginosa [4]: 5 µg/mL
MBC value (μg/ml), Streptococcus pneumoniae [5]: 4 µg/mL
MBC value (μg/ml), Acinetobacter baumannii [6]: 4 µg/mL
MBC value (μg/ml), Bacillus subtilis [7]: 5 µg/mL
MBC value (μg/ml), Enterobacter aerogenes [8]: 5 µg/mL
MBC value (μg/ml), Enterococcus faecalis [9]: 5 µg/mL
MBC value (μg/ml), Enterococcus faecium [10]: 5 µg/mL
MBC value (μg/ml), Escherichia coli [11]: 5 µg/mL
MBC value (μg/ml), Klebsiella pneumoniae [12]: 5 µg/mL
MBC value (μg/ml), Streptomyces sindenensis [13]: 5 µg/mL
MBC value (μg/ml), Multidrug-resistant A. baumannii [14]: 4 µg/mL
MBC value (μg/ml), Multidrug-resistant K. pneumoniae [15]: 5 µg/mL
MBC value (μg/ml), Vancomycin-resistant E. faecium [16]: 5 µg/mL
MBC value (μg/ml), Vancomycin-resistant S. aureus [17]: 6 µg/mL
hemolysis of red blood cells (mouse red blood cells): little hemolysis of red blood cells

— patent publication US12053506B2, “Romo1-derived antimicrobial peptides and variants thereof” (priority 2019, dated 2024)
